Structures can show the parent of a compound that is named as a salt.
Tests used:
[1] = system: oxidative phosphorylation in mitochondria from rat liver homogenates and Jensen sarcoma cells; conditions: cited from earlier work
[2] = system: fresh human tumour specimens; assay: FMCA cytotoxic activity in 27 fresh human tumour specimens (Figure 2); type: cell-based; conditions: 27 human tumour samples, 14 hematological and 13 solid, comparative statement
CEM/S = assay: cells; type: cell-based, human; conditions: CEM/S; 72 hours incubation; read-out: IC50
CEM/R = assay: cells; type: cell-based, human; conditions: CEM/R; 72 hours incubation; read-out: IC50
ACHN = assay: cells; type: cell-based, human; conditions: ACHN, primary resistant renal carcinoma; 72 hours incubation; read-out: IC50
H69 = assay: cells; type: cell-based, human; conditions: H69, small cell lung cancer; 72 hours incubation; read-out: IC50
H69AR = assay: cells; type: cell-based, human; conditions: H69AR, doxorubicin resistance; 72 hours incubation; read-out: IC50
8226S = assay: cells; type: cell-based, human; conditions: 8226S, myeloma; 72 hours incubation; read-out: IC50
8226Dox40 = assay: cells; type: cell-based, human; conditions: 8226Dox40, doxorubicin resistance; 72 hours incubation; read-out: IC50
8226LR5 = assay: cells; type: cell-based, human; conditions: 8226LR5, melphalan resistance; 72 hours incubation; read-out: IC50
U937gtb = assay: cells; type: cell-based, human; conditions: U937gtb, lymphoma; 72 hours incubation; read-out: IC50
U937vcr = assay: cells; type: cell-based, human; conditions: U937vcr, vincristine resistance; 72 hours incubation; read-out: IC50
[3] = system: panel of ten human tumour cell lines; assay: cells; type: cell-based; conditions: mean over the ten cell lines; read-out: MEAN IC50
Ovarian carcinoma = assay: Cytotoxic activity in different tumour models; type: cell-based, human; conditions: Number 8
Breast cancer = assay: Cytotoxic activity in different tumour models; type: cell-based, human; conditions: Number 4
NSC Lung cancer = assay: Cytotoxic activity in different tumour models; type: cell-based, human; conditions: Number 8
Prostate cancer = assay: Cytotoxic activity in different tumour models; type: cell-based, human; conditions: Number 1
Corpus cancer = assay: Cytotoxic activity in different tumour models; type: cell-based, human; conditions: Number 4
Adeno-carcinoma = assay: Cytotoxic activity in different tumour models; type: cell-based, human; conditions: Number 5
[4] = system: PHTC samples from 9 patients with hematological and 18 patients with solid tumours; assay: Circumvention of melphalan resistance: FMCA classification of PHTC samples as LDR, IDR, EDR; type: cell-based, human; conditions: tested at 4 µM
[5] = system: hematological fresh human tumour specimens (PHTC); conditions: 0.66 µM; n=42; 4320 min
[6] = system: solid tumour fresh human tumour specimens (PHTC); conditions: 0.66 µM; n=22; 4320 min
RPMI 8322 melanoma cells = conditions: compared with the other peptides of PTC; cited from earlier work
Solid tumours (PHTC) = assay: FMCA in PHTC cultures, Table 4, solid; conditions: 4 µM; n=12-20; 4320 min
[7] = system: primary cultures of human tumor cells from patients (PHTC), Total; assay: FMCA in PHTC cultures, Table 4, total; conditions: 4 µM; n=19-31; 4320 min
[8] = system: Hematological tumours (PHTC); assay: FMCA in PHTC cultures, Table 4, hematological; conditions: 4 µM; n=7-11; 4320 min
sarcoma 45 = conditions: rat, in vivo; cited from earlier work

Structure (SMILES): CC(C)[C@H](NC(=O)[C@@H](N)Cc1ccc(N(CCCl)CCCl)cc1)C(=O)O [L-melphalanyl-L-valine]
- oxidative phosphorylation [1]: disrupted oxidative phosphorylation

Structure (SMILES): CCOC(=O)[C@H](Cc1ccc(F)cc1)NC(=O)[C@H](Cc1cccc(N(CCCl)CCCl)c1)NC(=O)[C@@H]1CCCN1 [Example P2, L-prolyl-m-L-sarcolysyl-p-L-fluorophenylalanine ethyl ester hydrochloride, reference compound]
- IC50s (comparison) [2]: more active than melphalan
- IC50 (CEM/S): 0.94 µM
- IC50 (CEM/R): 0.63 µM
- IC50 (ACHN): 4.59 µM
- IC50 (H69): 4.59 µM
- IC50 (H69AR): 4.27 µM
- IC50 (8226S): 5.11 µM
- IC50 (8226Dox40): 5.43 µM
- IC50 (8226LR5): 7.4 µM
- IC50 (U937gtb): 1.78 µM
- IC50 (U937vcr): 1.79 µM
- IC50 [3]: 3.35 µM
- Median response at 4.0 µM >50% reduction in tumour cell survival (Ovarian carcinoma): No
- Median response at 4.0 µM >50% reduction in tumour cell survival (Breast cancer): No
- Median response at 4.0 µM >50% reduction in tumour cell survival (NSC Lung cancer): No
- Median response at 4.0 µM >50% reduction in tumour cell survival (Prostate cancer): No
- Median response at 4.0 µM >50% reduction in tumour cell survival (Corpus cancer): No
- Median response at 4.0 µM >50% reduction in tumour cell survival (Adeno-carcinoma): No
- Number of samples EDR ([4]; Extreme drug resistance): 1
- Number of samples (%) EDR ([4]; Extreme drug resistance, percent of samples): 5%
- Number of samples IDR ([4]; Intermediate drug resistance): 4
- Number of samples (%) IDR ([4]; Intermediate drug resistance, percent of samples): 21%
- Number of samples LDR ([4]; Low drug resistance): 14
- Number of samples (%) LDR ([4]; Low drug resistance, percent of samples): 74%
- Tumour cell survival index % Hematological [5]: 34.7%
- Tumour cell survival index % Solid [6]: 86.0%
- cytotoxicity (RPMI 8322 melanoma cells): more toxic to RPMI 8322 melanoma cells than any of the other peptides
- Tumour cell survival index (%) Solid tumours (Solid tumours (PHTC)): 68.9%
- Tumour cell survival index (%) Total [7]: 46.1%
- Tumour cell survival index (%) Hematological tumours [8]: 7%

Structure (SMILES): CCOC(=O)[C@H](Cc1ccc(O)cc1)NC(=O)[C@H](Cc1ccc(N(CCCl)CCCl)cc1)NC(C)=O [astyron, N-acetyl-L-melphalanyl-L-tyrosine ethyl ester]
- sarcoma 45 growth (sarcoma 45): inhibited sarcoma 45 growth
